Experimental data taken from PubChem BioAssay AID651630 (Sanford-Burnham Center for Chemical Genomics, 2012).
Activity calls are given as the source filed them.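 Rule for the calls: active = lipid-stain IC50 at or below a set limit, with nuclear-stain toxicity IC50 at least five times higher; inactive = the rest.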

Assays:
DAPI = test: triacylglycerol accumulation inhibitor potency, dose response, cell-based, panel, Nile Red and DAPI fluorescence, H9c2 (AID 651630); conditions: H9c2 cells, DAPI nuclear fluorescence (cytotoxicity counter-readout), oleic acid;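 note: cells exposed to compound overnight before fixation and staining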
TAG = test: as above; conditions: H9c2 cells, Nile Red TAG fluorescence, oleic acid

Compound	IC50 (TAG; run 1)	IC50 (TAG; run 2)	IC50 (TAG; mean of runs)	IC50 cytotoxicity (DAPI nuclear signal decrease) (DAPI; mean of runs)	IC50 cytotoxicity (DAPI nuclear signal decrease) (DAPI; run 1)	IC50 cytotoxicity (DAPI nuclear signal decrease) (DAPI; run 2)
Nc1ncnc2c1ncn2C1C=C(CO)C(O)C1O (stereo unspecified)	11.4 µM	13.7 µM	12.5 µM	> 25 µM (inactive)	> 25 µM	> 25 µM
N/C(=N\c1nc2ccccc2o1)NC(=O)c1ccc(F)cc1	> 25 µM	> 25 µM	> 25 µM (inactive)	> 25 µM (inactive)	> 25 µM	> 25 µM
C[C@@H]1CN([C@H](C)CO)C(=O)c2c(c3ccccc3n2C)-c2ccccc2CO[C@H]1CN(C)Cc1ccc(Oc2ccccc2)cc1	> 25 µM	> 25 µM	> 25 µM (inactive)	–	> 25 µM	20 µM
CC(C)=CCNc1ncnc2c1c(C#N)cn2C1OC(CO)C(O)C1O (stereo unspecified)	> 25 µM	> 25 µM	> 25 µM (inactive)	> 25 µM (inactive)	> 25 µM	> 25 µM
CCC(=O)Nc1nonc1-c1nc2ccccc2n1Cc1cccc2ccccc12	> 25 µM	> 25 µM	> 25 µM (inactive)	> 25 µM (inactive)	> 25 µM	> 25 µM
Cc1ccc(-n2nc(C)c3c(C)c(CCC(=O)Nc4ccc(CN5CCCC5)cc4)c(C)nc32)cc1	20.6 µM	> 25 µM	–	> 25 µM (inactive)	> 25 µM	> 25 µM
COc1ccc(Oc2nc(-c3ccccn3)nc3ccccc23)cc1	> 25 µM	> 25 µM	> 25 µM (inactive)	> 25 µM (inactive)	> 25 µM	> 25 µM
COc1ccc(S(=O)(=O)N2N=C(C)Oc3ccccc3C2=O)cc1	> 25 µM	> 25 µM	> 25 µM (inactive)	> 25 µM (inactive)	> 25 µM	> 25 µM
O=C(OCc1ccc(Br)cc1)c1cc([N+](=O)[O-])ccc1N1CCOCC1	> 25 µM	> 25 µM	> 25 µM (inactive)	> 25 µM (inactive)	> 25 µM	> 25 µM
CCOC(=O)c1c(CN2CCNCC2)nc2ccc(Cl)cc2c1-c1ccccc1	> 25 µM	> 25 µM	> 25 µM (inactive)	16.8 µM (inactive)	17.1 µM	16.5 µM
COc1cccc(-c2cc(C(=O)Nc3ccc(N(C)C(C)=O)cc3)c3cc(Br)ccc3n2)c1	11.7 µM	12.9 µM	12.3 µM	> 25 µM (inactive)	> 25 µM	> 25 µM
COc1ccc(C(=O)Nc2sc3c(c2C(=O)NCc2ccco2)CCCC3)cc1OC	> 25 µM	> 25 µM	> 25 µM (inactive)	> 25 µM (inactive)	> 25 µM	> 25 µM
Cc1noc(C)c1CSc1nc2[nH]ncc2c(=O)n1-c1ccccc1	3.41 µM	5.41 µM	4.41 µM	–	> 25 µM	> 25 µM
C=CCC[C@@H](Cc1ccc(F)cc1)C(=O)OC[C@@H](Cc1c[nH]c2ccccc12)NC(=O)[C@H](CC=C)CC(=O)N(CCO)Cc1ccccc1	6.29 µM	7.69 µM	6.99 µM	> 25 µM (inactive)	> 25 µM	> 25 µM

More lines, main results first:

IC50 (TAG; run 1)	IC50 (TAG; run 2)	IC50 (TAG; mean of runs)	Compound	IC50 cytotoxicity (DAPI nuclear signal decrease) (DAPI; mean of runs)	IC50 cytotoxicity (DAPI nuclear signal decrease) (DAPI; run 1)	IC50 cytotoxicity (DAPI nuclear signal decrease) (DAPI; run 2)
> 25 µM	14.5 µM	–	CN(C)CCCNC(=O)C[C@H]1C[C@H](C(=O)N2CCCCC2)[C@@]2(CCc3ccccc3)c3[nH]c4cc(-c5ccco5)ccc4c3CCN2C1=O	> 25 µM (inactive)	> 25 µM	> 25 µM
> 25 µM	> 25 µM	> 25 µM (inactive)	CNC(=S)NN=C(C)c1ccc(OC)cc1O	> 25 µM (inactive)	> 25 µM	> 25 µM
5.94 µM	6.94 µM	6.44 µM	O=C(Nc1ccc(-c2csc(Nc3cccc(C(F)(F)F)c3)n2)cc1)c1cccc(C(F)(F)F)c1	> 25 µM (inactive)	> 25 µM	> 25 µM
2.44 µM	3.57 µM	3.01 µM	CCOc1ccc(CCNC(=O)CN2CCN(Cc3ccccc3F)C2=O)cc1OCC	–	> 25 µM	> 25 µM
5.36 µM	4.71 µM	5.04 µM	CCOc1ccc(Cc2nnc(SCC(=O)Nc3ccccc3)n(N)c2=O)cc1	> 25 µM (inactive)	> 25 µM	> 25 µM
> 25 µM	> 25 µM	> 25 µM (inactive)	O=C(CC1C[C@H](C(=O)N2CCOCC2)[C@@]2(CCC3CCCC3)c3[nH]c4ccccc4c3CCN2C1=O)NCC12CC3CC(CC(C3)C1)C2 (stereo partly specified)	> 25 µM (inactive)	> 25 µM	> 25 µM
9.86 µM	11.4 µM	10.6 µM	CC(C)N(C(=O)[C@H]1C[C@H](CC(=O)NCc2cccc(C(F)(F)F)c2)C(=O)N2CCc3c([nH]c4ccc(Cl)cc34)[C@]12C)C(C)C	> 25 µM (inactive)	> 25 µM	> 25 µM
> 25 µM	> 25 µM	> 25 µM (inactive)	COc1ccc([C@H]2CC(=O)C=C(c3ccc(OC)cc3OC)C2)cc1	> 25 µM (inactive)	> 25 µM	> 25 µM
> 25 µM	> 25 µM	> 25 µM (inactive)	Cc1nn2c(N3CCCC3)cc(C(C)C)nc2c1-c1ccccc1	> 25 µM (inactive)	> 25 µM	> 25 µM
2.87 µM	4.26 µM	3.56 µM	Nc1c(Cl)cc(-c2csc(N3CCCC3c3nc4cc(Cl)c(N5CCCCC5)cc4n3CCCO)n2)cc1Cl (stereo unspecified)	15.6 µM (inactive)	14.5 µM	16.6 µM
24.3 µM	15.5 µM	19.9 µM (inactive)	CCOC(=O)N1CCN(C(=O)c2ccccc2N(Cc2ccccc2)S(=O)(=O)c2ccc(OC)cc2)CC1	> 25 µM (inactive)	> 25 µM	> 25 µM
5.89 µM	10.1 µM	8 µM	COc1ccc(-c2csc(NC(=S)NC(=O)/C=C/c3ccco3)n2)cc1Br	> 25 µM (inactive)	> 25 µM	> 25 µM
4.85 µM	2.76 µM	3.8 µM	Cc1ccc(NC(=O)CSc2nc3ccc(Nc4nc(N5CCOCC5)nc(N5CCOCC5)n4)cc3s2)cc1	–	> 25 µM	> 25 µM
16.5 µM	17.8 µM	17.2 µM (inactive)	CC1(C)CC(=O)C2=C(C1)Oc1nc3ccccc3cc1C2C(C#N)C#N (stereo unspecified)	12.7 µM (inactive)	11.4 µM	14 µM
4.48 µM	5.47 µM	4.98 µM	C[C@@]12C(=O)Nc3ccc(Br)cc3C(=O)N1[C@H]1c3cc(Br)ccc3OC[C@@H]1[C@@H]2c1ccccc1	–	> 25 µM	> 25 µM
> 25 µM	> 25 µM	> 25 µM (inactive)	CCN(CC)CCNc1nc2cc(OC)c(OC)cc2c2nc(-c3ccccc3)nn12	> 25 µM (inactive)	> 25 µM	> 25 µM
> 25 µM	> 25 µM	> 25 µM (inactive)	Cc1ccsc1-c1nc(C(N)=O)c2[nH]c(=O)n(-c3ccc(Cl)cc3)c2n1	> 25 µM (inactive)	> 25 µM	> 25 µM
17.1 µM	18.9 µM	18 µM (inactive)	CCOC(=O)c1c(CSC(=N)N)n(-c2ccccc2)c2cc(Br)c(OC(C)=O)cc12	> 25 µM (inactive)	> 25 µM	> 25 µM
> 25 µM	> 25 µM	> 25 µM (inactive)	CNCCCN1c2ccccc2CCc2ccccc21	> 25 µM (inactive)	> 25 µM	> 25 µM
